Laboratory results published in patent US20220194936A1, “CRYSTALLINE FORMS OF N-(5-(5-((1R,2S)-2-FLUOROCYCLOPROPYL)-1,2,4-OXADIAZOL-3-YL)-2-METHYLPHENYL)IMIDAZO[1,2-A]PYRIDINE-3-CARBOXAMIDE” (Novartis AG, priority 2019, published 2022).
In brackets after ≈: the same amount, converted by molar mass. Like-named read-outs stand apart in the source and are kept apart here.

Experiments:
[1] = Solubility in various media at 25° C. after 24 hours equilibration (HPLC); format: physicochemical; conditions: for solubility at 24 h: thermodynamic from solid, read-out: Conc. (solubility)
Protocol: (§1) 5-(5-((I R,2S)-2-fluorocyclopropyl)-1,2,4-oxadiazol-3-yl)-2-methylphenyl)imidazo[1,2-a]pyridine-3-carboxamide Form A (10 mg) in various media (1 mL) were mixed in a glass vial to make a slurry. Each sample was equilibrated at 25° C. for 24 hrs, and centrifuged at 13400 r.p.m. for 3 mins with 0.2 μm membrane to separate solids from liquids. The liquid was used to measure solubility by HPLC. Table 6 provides solubility data of 5-(5-((1R,2S)-2-fluorocyclopropyl)-1,2,4-oxadiazol-3-yl)-2-methylphenyl)imidazo[1,2-a]pyridine-3-carboxamide Form A at 25° C. after 24 hours equilibration and the final pH of the sample.
as §1, with “5-(5-((1R,2S)-2-fluorocyclopropyl)-1,2,4-oxadiazol-3-yl)-2-methylphenyl)imidazo[1,2-a]pyridine-3-carboxamide fumaric acid co-crystal” for “5-(5-((I R,2S)-2-fluorocyclopropyl)-1,2,4-oxadiazol-3-yl)-2-methylphenyl)imidazo[1,2-a]pyridine-3-carboxamide Form A”, “10” for “6”, “fumaric acid co-crystal” for “Form A”

[2] = Hygroscopicity by DVS at 25° C.; format: physicochemical
Protocol: The hygroscopicity of 5-(5-((1R,2S)-2-fluorocyclopropyl)-1,2,4-oxadiazol-3-yl)-2-methylphenyl)imidazo[1,2-a]pyridine-3-carboxamide Form A was evaluated by DVS at 25° C. and various RH values. The samples was examined by XRPD for physical stability determination.
The hygroscopicity of 5-(5-((1R,2S)-2-fluorocyclopropyl)-1,2,4-oxadiazol-3-yl)-2-methylphenyl)imidazo[1,2-a]pyridine-3-carboxamide fumaric acid co-crystal was evaluated by DVS at 25° C. and various RH values. The samples was examined by XRPD for physical stability determination.

[3] = FaSSIF-V2, pH 6.5, 25° C., LOQ = Limit of Quantitation +/− 0.5 μg/ml
[4] = Water, 25° C., LOQ = Limit of Quantitation +/− 0.5 μg/ml
[5] = pH 4.7, acetate buffer, 25° C., LOQ = Limit of Quantitation +/− 0.5 μg/ml
[6] = pH 6.8, phosphate buffer, 25° C.
[7] = pH 6.8, phosphate buffer, 25° C., LOQ = Limit of Quantitation +/− 0.5 μg/ml
[8] = pH 10.0, borate buffer, 25° C., LOQ = Limit of Quantitation +/− 0.5 μg/ml

Row | Compound | Final pH ([1]; FaSSIF-V2, pH 6.5, 25° C.) | Conc. (solubility) [1, 3] | Final pH ([1]; FeSSIF-V2, pH 5.8, 25° C.) | Conc. (solubility) ([1]; SGF pH 2.0, 25° C.) [µg/mL] | Final pH ([1]; SGF pH 2.0, 25° C.) | Final pH ([1]; Water, 25° C.) | Conc. (solubility) [1, 4] | Final pH ([1]; pH 1.0 (0.1N HCl), 25° C.) | Final pH ([1]; pH 2.0 (0.01N HCl), 25° C.) | Final pH ([1]; pH 4.7, acetate buffer, 25° C.) | Conc. (solubility) [1, 5] | Final pH [1, 6] | Conc. (solubility) [1, 7] | Final pH ([1]; pH 10.0, borate buffer, 25° C.) | Conc. (solubility) [1, 8] | Desorporption. Weight % change ([2]; 0 % RH) [%] | Sorption Weight % change ([2]; 0 % RH) [%] | Desorporption. Weight % change ([2]; 10 % RH) [%] | Sorption Weight % change ([2]; 10 % RH) [%] | Desorporption. Weight % change ([2]; 20 % RH) [%] | further results
1 | Cc1ccc(-c2noc([C@H]3C[C@@H]3F)n2)cc1NC(=O)c1cnc2ccccn12 [Form A, N-(5-(5-((1R,2S)-2-fluorocyclopropyl)-1,2,4-oxadiazol-3-yl)-2-methylphenyl)imidazo[1,2-a]pyridine-3-carboxamide] | 6.40 | LOQ | 5.63 | 640 | 2.10 | 7.91 | LOQ | 1.20 | 2.06 | 4.78 | LOQ | 6.77 | LOQ | 10.02 | LOQ | 0.0000 | 0.0000 | 0.0167 | 0.0167 | 0.0501 | solubility at 24 h ([1]; 0.01N HCl, 25 °C, pH 2, simulated gastric fluid, pH 2.0 (0.01N HCl), 25° C.): 210 µg/mL (≈ 556 µM); solubility at 24 h ([1]; 0.1N HCl, 25 °C, pH 1, simulated gastric fluid, pH 1.0 (0.1N HCl), 25° C.): 440 µg/mL (≈ 1170 µM); solubility at 24 h ([1]; FeSSIF-V2, 25 °C, pH 5.8, fessif, FeSSIF-V2, pH 5.8, 25° C.): 15 µg/mL (≈ 39.7 µM); Sorption Weight % change ([2]; 20 % RH): 0.0234%; Desorporption. Weight % change ([2]; 30 % RH): 0.0768%; Sorption Weight % change ([2]; 30 % RH): 0.0468%; Desorporption. Weight % change ([2]; 40 % RH): 0.0802%; Sorption Weight % change ([2]; 40 % RH): 0.0601%; Desorporption. Weight % change ([2]; 50 % RH): 0.0735%; Sorption Weight % change ([2]; 50 % RH): 0.0568%; Desorporption. Weight % change ([2]; 60 % RH): 0.0969%; Sorption Weight % change ([2]; 60 % RH): 0.0868%; Desorporption. Weight % change ([2]; 70 % RH): 0.1369%; Sorption Weight % change ([2]; 70 % RH): 0.1169%; Desorporption. Weight % change ([2]; 80 % RH): 0.1803%; Sorption Weight % change ([2]; 80 % RH): 0.1436%; Desorporption. Weight % change ([2]; 90 % RH): 0.2338%; Sorption Weight % change ([2]; 90 % RH): 0.2104%
2 | Cc1ccc(-c2noc([C@H]3C[C@@H]3F)n2)cc1NC(=O)c1cnc2ccccn12 [fumaric acid co-crystal, N-(5-(5-((1R,2S)-2-fluorocyclopropyl)-1,2,4-oxadiazol-3-yl)-2-methylphenyl)imidazo[1,2-a]pyridine-3-carboxamide fumaric acid co-crystal] | 4.66 | LOQ | 4.75 | 180 | 1.94 | 4.26 | LOQ | 0.95 | 1.98 | 4.51 | LOQ | 5.79 | LOQ | 8.76 | LOQ | 0.0000 | 0.0000 | 0.0153 | −0.0019 | 0.0307 | Conc. (solubility) ([1]; FeSSIF-V2, pH 5.8, 25° C.): 8 µg/mL; Conc. (solubility) ([1]; pH 1.0 (0.1N HCl), 25° C.): 410 µg/mL; Conc. (solubility) ([1]; pH 2.0 (0.01N HCl), 25° C.): 190 µg/mL; Sorption Weight % change ([2]; 20 % RH): 0.0038%; Desorporption. Weight % change ([2]; 30 % RH): 0.0939%; Sorption Weight % change ([2]; 30 % RH): 0.0383%; Desorporption. Weight % change ([2]; 40 % RH): 0.0996%; Sorption Weight % change ([2]; 40 % RH): 0.0632%; Desorporption. Weight % change ([2]; 50 % RH): 0.1130%; Sorption Weight % change ([2]; 50 % RH): 0.0843%; Sorption Weight % change ([2]; 60 % RH): 0.0958%; Desorporption. Weight % change ([2]; 70 % RH): 0.1590%; Sorption Weight % change ([2]; 70 % RH): 0.1322%; Desorporption. Weight % change ([2]; 80 % RH): 0.1897%; Sorption Weight % change ([2]; 80 % RH): 0.1590%; Desorporption. Weight % change ([2]; 90 % RH): 0.1935%; Sorption Weight % change ([2]; 90 % RH): 0.2107%
